# Patent US9205073B2, “Method for treating virus infection using derivative of aniline” (CHINA MEDICAL UNIVERSITY, priority 2014, dated 2015)
# How the values were obtained:
# [1] = test system: JAK-STAT, AkT-mTOR and ERK-CREB signaling pathway-related proteins; assay: Western blot of signaling pathway phosphorylation in JEV T1P1-infected TE671 cells; type: cell-based; conditions: 36 hours, 2.5-250 μM
# Procedure: TE671cells were cultured in a 6-well culture plate at an initial density of 3×10^5 per well with 2 ml of 2% FBS-containing MEM medium per well. The cells were incubated in an incubator (37° C., 5% CO2) overnight. The medium was removed until the cells adhered to the plate. 1 ml of fresh 2% FBS-containing MEM medium was simultaneously added into each well. The cells were infected with JEV T1P1virus strain (M.O.I.=0.05). Different concentrations of compound 1 (the final concentrations were 0, 2.5, 25, 125 and 250 μM, respectively) were added into different wells. The cells were incubated in an incubator (37° C., 5% CO2) for 36 hours. The supernatant was removed, and the TE671 cells were washed with PBS. The PBS was removed, and 150 μl Trypsin-EDTA was added into each well. The cells were incubated in an incubator at 37° C. for 3 minutes. Then, 1 ml MEM medium was added into each well to neutralize EDTA, and the cells were separately collected into 15 ml tubes and precipitated by centrifugation (2000 rpm, 3 minutes). The supernatants were removed. The cells were resuspended with 1 ml PBS per tube, transferred into 1.5 ml microtubes respectively, and precipitated by centrifugation (2000 rpm, 3 minutes). The supernatants were removed and 100 μl radioimmunoprecipitation buffer (RIPA buffer) was added into each well. […]
# The above protein samples were analyzed by protein electrophoresis. […]
# DEN2 [2] = assay: Dengue virus replication, DEN2 NS1 antigen-capture ELISA in Huh7 cells; type: cell-based, dengue virus type 2; conditions: M.O.I.=5, 48 hours, compound 10 μM
# Procedure: Huh7 cells were cultured in a 24-well culture plate with an initial density of 3×10^4 per well, and with 1 ml of 2% FBS-containing MEM medium per well. The cells were incubated in an incubator (37° C., 5% CO2) overnight. The medium was removed until the cells adhered to the plate. Then, 1 ml of fresh 2% FBS-containing MEM medium was simultaneously added into each well of the culture plate. The cells were infected with DEN2 virus strain (M.O.I.=5). Different concentrations of compound 1 (the final concentrations were 0, 10, 50, 100 and 150 μM, respectively) were added into different wells. The culture plate was placed into an incubator (37° C., 5% CO2) and maintained for 48 hours. The supernatant of viral medium was collected.
# The above obtained supernatant was analyzed by an antigen-capture enzyme-linked immunosorbent assay (ELASA) to quantitate the DEN2 NSI protein level in the viral medium. First, a NS1 antibody was added into each well of a 96-well micro-reaction plate (200 μl/well) and the reaction was maintained at 4° C. overnight. Each well was washed with PBST 3 times (200 μl/time). A 1% BSA-containing blocking buffer (300 μl) was added into each well. […] The reading value of DEN NS1 protein amount in each supernatant was determined by examining the absorbances at a wavelength of 450 nm to evaluate DEN2 replication.
# DEN2 [3] = assay: Dengue virus infection-induced cytopathic effect in BHK-21 cells; type: cell-based, dengue virus type 2; conditions: infected 72 hours, M.O.I.=0.1, compound 25 μM
# Procedure: BHK-21 cells were cultured in a 24-well culture plate at an initial density of 3×10^4 per well with 1 ml of 2% FBS-containing MEM medium per well. The cells were incubated in an incubator (37° C., 5% CO2) overnight, and the medium was removed until the cells adhered to the plate. Then, 1 ml of fresh 2% FBS-containing MEM medium was simultaneously added into each well of the culture plate; the cells were infected with the DEN2 virus strain (M.O.I.=0.1); different concentrations of compound 1 (the final concentrations were 0, 2.5 and 25 μM, respectively) were added into different wells. BHK-21 cells were incubated in an incubator (37° C., 5% CO2) for 72 hours, and then their morphology was observed by photography.
compound,measurement,setting,value
"CCOC(=O)C1=C(Nc2cc(C)cc(C)c2)OCC1=O [Compound 1, ethyl 2-(3′,5′-dimethylanilino)-4-oxo-4,5-dihydrofuran-3-carboxylate]","phosphorylation levels of JAK-STAT, AkT-mTOR and ERK-CREB signaling pathway-related proteins",[1],increased in a concentration dependent manner
same,level of DEN2 NS1 protein,DEN2 [2],reduced
same,DEN2-induced cytopathic effect,DEN2 [3],effectively inhibited
